Among the data in US20090176811A1, “Substituted 5,6,7,8-Tetrahydro-pyrido[4,3-d]pyrimidine-2-yl Compounds and 5,6,7,8-Tetrahydro-quinazoline-2-yl Compounds” (GRUENENTHAL GmbH, priority 2004, published 2009) are BTX inhibition values, retold here.

The assay has as its system batrachotoxin (BTX) binding site of the sodium channel. Kind of assay: Affinity for the batrachotoxin (BTX) binding site of the sodium channel ([3H]-Batrachotoxinin A20 benzoate, rat cerebrocortex synaptosomes). The settings on record: [3H]-Batrachotoxinin A20 benzoate 10 nM, test concentration not given.

`O=C(Nc1ncc2c(n1)CCN(C(=O)Cc1ccc(Cl)cc1)C2)c1ccc(Cl)c(Cl)c1` [Example 126, 3,4-dichloro-N-{6-[2-(4-chloro-phenyl)-acetyl]-5,6,7,8-tetrahydro-pyrido[4,3-d]pyrimidin-2-yl}-benzamide]: the BTX inhibition was 70. The figure for `O=C(Nc1ncc2c(n1)CCN(C(=O)c1c(F)cccc1Cl)C2)c1cccc(Cl)c1` [Example 127, 3-chloro-N-[6-(2-chloro-6-fluoro-benzoyl)-5,6,7,8-tetrahydro-pyrido[4,3-d]pyrimidin-2-yl]-benzamide] is 30; for `CCCCCC(=O)NC1CCc2nc(NC(=O)c3ccc(F)cc3)ncc2C1` (centres unmarked) [Example 128, 4-fluoro-N-(6-hexanoylamino-5,6,7,8-tetrahydro-quinazolin-2-yl)-benzamide] it is 33. The figure for `COc1cccc(C(=O)Nc2ncc3c(n2)CCN(S(=O)(=O)c2cc(Br)ccc2OC)C3)c1` [Example 129, N-[6-(5-bromo-2-methoxy-benzenesulfonyl)-5,6,7,8-tetrahydro-pyrido[4,3-d]pyrimidin-2-yl]-3-methoxy-benzamide] is 76; for `O=C(Nc1ncc2c(n1)CCN(C(=O)CCC1CCCC1)C2)c1ccncc1` [Example 132, N-[6-(3-cyclopentyl-propionyl)-5,6,7,8-tetrahydro-pyrido[4,3-d]pyrimidin-2-yl]-isonicotinamide] it is 72; for `CCCC(=O)Nc1ncc2c(n1)CCC(NC(=O)c1ccc(Cc3ccccc3)o1)C2` (centres unmarked) [Example 133, 5-benzyl-furan-2-carboxylic acid (2-butyrylamino-5,6,7,8-tetrahydro-quinazolin-6-yl)-amide] it is 39.

For `O=C(Nc1ncc2c(n1)CCN(S(=O)(=O)c1ccc(OC(F)(F)F)cc1)C2)c1ccc(Cl)c(Cl)c1` [Example 134, 3,4-dichloro-N-[6-(4-trifluoromethoxy-benzenesulfonyl)-5,6,7,8-tetrahydro-pyrido[4,3-d]pyrimidin-2-yl]-benzamide], the BTX inhibition is recorded as 64. The result for `Cc1oc(-c2ccccc2)cc1C(=O)N1CCc2nc(NC(=O)c3ccccc3F)ncc2C1` [Example 137, 2-fluoro-N-[6-(2-methyl-5-phenyl-furan-3-carbonyl)-5,6,7,8-tetrahydro-pyrido[4,3-d]pyrimidin-2-yl]-benzamide] reads 43; that for `CC(C)C(NC(=O)OCC1c2ccccc2-c2ccccc21)C(=O)NC1CCc2nc(NC(=O)c3cccs3)ncc2C1` (centres unmarked) [Example 139, (2-methyl-1-{2-[(thiophene-2-carbonyl)-amino]-5,6,7,8-tetrahydro-quinazolin-6-ylcarbamoyl}-propyl)-carbamic acid 9H-fluoren-9-ylmethyl ester], 62; that for `O=C(Nc1ncc2c(n1)CCN(C(=O)C1CCc3ccccc3C1)C2)c1cccc(F)c1` (centres unmarked) [Example 141, 3-fluoro-N-[6-(1,2,3,4-tetrahydro-naphthalene-2-carbonyl)-5,6,7,8-tetrahydro-pyrido[4,3-d]pyrimidin-2-yl]-benzamide], 63. The figure for `Cc1ccc(S(=O)(=O)N2CCc3nc(NC(=O)c4cccc(F)c4)ncc3C2)cc1` [Example 143, 3-fluoro-N-[6-(toluene-4-sulfonyl)-5,6,7,8-tetrahydro-pyrido[4,3-d]pyrimidin-2-yl]-benzamide] is 61. For the molecule `O=C(Nc1ncc2c(n1)CCN(C(=O)c1ccc(-c3cccs3)cc1)C2)c1cc(Cl)cc(Cl)c1` [Example 144, 3,5-dichloro-N-[6-(4-thiophen-2-yl-benzoyl)-5,6,7,8-tetrahydro-pyrido[4,3-d]pyrimidin-2-yl]-benzamide], the BTX inhibition was 81. The figure for `CCOc1ccccc1C(=O)Nc1ncc2c(n1)CCN(C(=O)c1sccc1Cl)C2` [Example 145, N-[6-(3-chloro-thiophene-2-carbonyl)-5,6,7,8-tetrahydro-pyrido[4,3-d]pyrimidin-2-yl]-2-ethoxy-benzamide] is 46; for `O=C(Nc1ncc2c(n1)CCC(NS(=O)(=O)c1ccc3c(c1)CN(C(=O)C(F)(F)F)CC3)C2)c1cccs1` (centres unmarked) [Example 147, thiophene-2-carboxylic acid {6-[2-(2,2,2-trifluoro-acetyl)-1,2,3,4-tetrahydro-isoquinoline-7-sulfonylamino]-5,6,7,8-tetrahydro-quinazolin-2-yl}-amide] it is 48; for `Cc1ccc(C(=O)Nc2ncc3c(n2)CCN(C(=O)c2ccc(SC(F)(F)F)cc2)C3)cc1` [Example 148, 4-methyl-N-[6-(4-trifluoromethylsulfanyl-benzoyl)-5,6,7,8-tetrahydro-pyrido[4,3-d]pyrimidin-2-yl]-benzamide] it is 85. The result for `Cc1ccc([N+](=O)[O-])cc1S(=O)(=O)N1CCc2nc(NC(=O)c3ccccc3F)ncc2C1` [Example 150, 2-fluoro-N-[6-(2-methyl-5-nitro-benzenesulfonyl)-5,6,7,8-tetrahydro-pyrido[4,3-d]pyrimidin-2-yl]-benzamide] reads 49; that for `O=C(Nc1ncc2c(n1)CCN(C(=O)c1ccc(F)cc1F)C2)c1ccc(Cl)cc1` [Example 152, 4-chloro-N-[6-(2,4-difluoro-benzoyl)-5,6,7,8-tetrahydro-pyrido[4,3-d]pyrimidin-2-yl]-benzamide], 55; that for `O=C(Nc1ncc2c(n1)CCN(C(=O)Cc1ccc(C(F)(F)F)cc1)C2)c1ccccc1` [Example 155, N-{6-[2-(4-trifluoromethyl-phenyl)-acetyl]-5,6,7,8-tetrahydro-pyrido[4,3-d]pyrimidin-2-yl}-benzamide], 62.

Take `CCc1ccc(C(=O)Nc2ncc3c(n2)CCN(S(=O)(=O)c2ccc4c(c2)CN(C(=O)C(F)(F)F)CC4)C3)cc1` [Example 157, 4-ethyl-N-{6-[2-(2,2,2-trifluoro-acetyl)-1,2,3,4-tetrahydro-isoquinoline-7-sulfonyl]-5,6,7,8-tetrahydro-pyrido[4,3-d]pyrimidin-2-yl}-benzamide]: the BTX inhibition turned out to be 63. The figure for `COc1ccccc1C(=O)Nc1ncc2c(n1)CCN(S(=O)(=O)c1c(C)cc(OC)c(C)c1C)C2` [Example 158, 2-methoxy-N-[6-(4-methoxy-2,3,6-trimethyl-benzenesulfonyl)-5,6,7,8-tetrahydro-pyrido[4,3-d]pyrimidin-2-yl]-benzamide] is 74; for `Cc1ccc(C)c(CC(=O)NC2CCc3nc(NC(=O)c4ccc(F)cc4)ncc3C2)c1` (centres unmarked) [Example 163, N-{6-[2-(2,5-dimethyl-phenyl)-acetylamino]-5,6,7,8-tetrahydro-quinazolin-2-yl}-4-fluoro-benzamide] it is 28; for `CCCC(=O)Nc1ncc2c(n1)CCC(NS(=O)(=O)c1ccc(C(C)(C)CC)cc1)C2` (centres unmarked) [Example 167, N-{6-[4-(1,1-dimethyl-propyl)-benzenesulfonylamino]-5,6,7,8-tetrahydro-quinazolin-2-yl}-butyramide] it is 51.

Regarding `CCCC(=O)Nc1ncc2c(n1)CCC(NC(=O)C=Cc1cccc(C(F)(F)F)c1)C2` (centres unmarked) [Example 168, N-(2-butyrylamino-5,6,7,8-tetrahydro-quinazolin-6-yl)-3-(3-trifluoromethyl-phenyl)-acrylamide], the BTX inhibition is listed as 39. The result for `CCc1ccc(C(=O)Nc2ncc3c(n2)CCN(S(=O)(=O)c2ccc(OC)cc2)C3)cc1` [Example 172, 4-ethyl-N-[6-(4-methoxy-benzenesulfonyl)-5,6,7,8-tetrahydro-pyrido[4,3-d]pyrimidin-2-yl]-benzamide] reads 57; that for `O=C(Nc1ncc2c(n1)CCN(C(=O)C1=Cc3ccccc3OC1)C2)c1ccc(F)c(F)c1` [Example 175, N-[6-(2H-chromene-3-carbonyl)-5,6,7,8-tetrahydro-pyrido[4,3-d]pyrimidin-2-yl]-3,4-difluoro-benzamide], 49. The result for `O=C(Nc1ncc2c(n1)CCC(NS(=O)(=O)c1cc(Cl)sc1Cl)C2)c1cccs1` (centres unmarked) [Example 180, thiophene-2-carboxylic acid [6-(2,5-dichloro-thiophene-3-sulfonylamino)-5,6,7,8-tetrahydro-quinazolin-2-yl]-amide] reads 46; that for `O=C(Nc1ncc2c(n1)CCN(C(=O)c1cccc(F)c1)C2)c1cccc2ccccc12` [Example 183, naphthalene-1-carboxylic acid [6-(3-fluoro-benzoyl)-5,6,7,8-tetrahydro-pyrido[4,3-d]pyrimidin-2-yl]-amide], 31. The result for `CC(C)(C)c1ccc(C(=O)Nc2ncc3c(n2)CCN(C(=O)c2csc4ccccc24)C3)cc1` [Example 184, N-[6-(benzo[b]thiophene-3-carbonyl)-5,6,7,8-tetrahydro-pyrido[4,3-d]pyrimidin-2-yl]-4-tert-butyl-benzamide] reads 87.

Take `CC(C)(C)c1ccc(C(=O)Nc2ncc3c(n2)CCN(S(=O)(=O)c2ccc4c(c2)OCCO4)C3)cc1` [Example 186, 4-tert-butyl-N-[6-(2,3-dihydro-benzo[1,4]dioxin-6-sulfonyl)-5,6,7,8-tetrahydro-pyrido[4,3-d]pyrimidin-2-yl]-benzamide]: the BTX inhibition is recorded as 77.

Turning to `O=C(Nc1ncc2c(n1)CCN(C(=O)Cc1c(Cl)cccc1Cl)C2)c1cccc(Cl)c1` [Example 187, 3-chloro-N-{6-[2-(2,6-dichloro-phenyl)-acetyl]-5,6,7,8-tetrahydro-pyrido[4,3-d]pyrimidin-2-yl}-benzamide], the BTX inhibition was determined as 43. The result for `Cc1ccc(C(=O)Nc2ncc3c(n2)CCN(C(=O)COc2cccc(Cl)c2)C3)cc1` [Example 189, N-{6-[2-(3-chloro-phenoxy)-acetyl]-5,6,7,8-tetrahydro-pyrido[4,3-d]pyrimidin-2-yl}-4-methyl-benzamide] reads 55; that for `O=C(Nc1ncc2c(n1)CCN(C(=O)CCCCc1ccccc1)C2)c1ccccc1` [Example 190, N-[6-(5-phenyl-pentanoyl)-5,6,7,8-tetrahydro-pyrido[4,3-d]pyrimidin-2-yl]-benzamide], 56.
